Assay results from ChEMBL document CHEMBL2157896, “Engineering pH-gated transitions for selective and efficient double-strand DNA photocleavage in hypoxic tumors” (J Med Chem, 2011).
Active and inactive are the calls of the source. The rule behind the calls is not given here.

Assays:
Nucleic Acid [1] = experiment: Induction of DNA damage in human […] cells at 30 uM incubated for 3 hrs using cells exposed to UV irradiation for 20 mins by single cell gel electrophoresis; format: cell-based
Nucleic Acid [2] = experiment: Induction of photochemical DNA cleavage in Escherichia coli pBR322 assessed as form 2 level at 15 uM in pH 7.0 phosphate buffer measured after 0.5 mins of UV irradiation; format: nucleic-acid assay
Nucleic Acid [3] = experiment: Induction of photochemical DNA cleavage in Escherichia coli pBR322 assessed as form 3 level at 15 uM in pH 8.0 phosphate buffer measured after 4 mins of UV irradiation; format: nucleic-acid assay
Nucleic Acid [4] = experiment: Induction of photochemical DNA cleavage in Escherichia coli pBR322 assessed as form 3 level at 15 uM in pH 6.0 phosphate buffer measured after 10 mins of UV irradiation; format: nucleic-acid assay
Nucleic Acid [5] = experiment: Induction of photochemical DNA cleavage in Escherichia coli pBR322 assessed as form 2 level at 15 uM in pH 7.0 phosphate buffer measured after 10 mins of UV irradiation; format: nucleic-acid assay
Nucleic Acid [6] = experiment: Induction of DNA damage in human […] cells at 30 uM incubated for 3 hrs using cells exposed to UV irradiation for 4 to 24 hrs by single cell gel electrophoresis; format: cell-based; conditions: TDE = time-dependent effect
Nucleic Acid [7] = experiment: Induction of photochemical DNA cleavage in Escherichia coli pBR322 assessed as form 3 level at 15 uM in pH 8.0 phosphate buffer measured after 2 mins of UV irradiation; format: nucleic-acid assay
Nucleic Acid [8] = experiment: Induction of photochemical DNA cleavage in Escherichia coli pBR322 assessed as form I level at 15 uM in pH 6.0 phosphate buffer measured after 4 mins of UV irradiation; format: nucleic-acid assay
Nucleic Acid [9] = experiment: Induction of DNA cleavage in Escherichia coli pBR322 at 15 uM in pH 6.0 phosphate buffer measured after of UV irradiation; format: nucleic-acid assay
Nucleic Acid [10] = experiment: Induction of photochemical DNA cleavage in Escherichia coli pBR322 assessed as form I level at 15 uM in pH 8.0 phosphate buffer measured after 2 mins of UV irradiation; format: nucleic-acid assay
Nucleic Acid [11] = experiment: Induction of photochemical DNA cleavage in Escherichia coli pBR322 assessed as form 2 level at 15 uM in pH 6.0 phosphate buffer measured after 10 mins of UV irradiation; format: nucleic-acid assay
Nucleic Acid [12] = experiment: Induction of photochemical DNA cleavage in Escherichia coli pBR322 assessed as form 2 level at 15 uM in pH 8.0 phosphate buffer measured after 10 mins of UV irradiation; format: nucleic-acid assay
Nucleic Acid [13] = experiment: Induction of photochemical DNA cleavage in Escherichia coli pBR322 assessed as form 3 level at 15 uM in pH 8.0 phosphate buffer measured after 10 mins of UV irradiation; format: nucleic-acid assay
Nucleic Acid [14] = experiment: Induction of photochemical DNA cleavage in Escherichia coli pBR322 assessed as form 3 level at 15 uM in pH 8.0 phosphate buffer measured after 0.5 mins of UV irradiation; format: nucleic-acid assay
Nucleic Acid [15] = experiment: Induction of photochemical DNA cleavage in Escherichia coli pBR322 assessed as form 2 level at 15 uM in pH 6.0 phosphate buffer measured after 6 mins of UV irradiation; format: nucleic-acid assay
Nucleic Acid [16] = experiment: Induction of photochemical DNA cleavage in Escherichia coli pBR322 assessed as form I level at 15 uM in pH 7.0 phosphate buffer measured after 4 mins of UV irradiation; format: nucleic-acid assay
Nucleic Acid [17] = experiment: Induction of photochemical DNA cleavage in Escherichia coli pBR322 assessed as form I level at 15 uM in pH 8.0 phosphate buffer measured after 1 min of UV irradiation; format: nucleic-acid assay
Nucleic Acid [18] = experiment: Induction of photochemical DNA cleavage in Escherichia coli pBR322 assessed as form 3 level at 15 uM in pH 6.0 phosphate buffer measured after 8 mins of UV irradiation; format: nucleic-acid assay
Nucleic Acid [19] = experiment: Induction of photochemical DNA cleavage in Escherichia coli pBR322 assessed as form 2 level at 15 uM in pH 7.0 phosphate buffer measured after 4 mins of UV irradiation; format: nucleic-acid assay
Nucleic Acid [20] = experiment: Induction of photochemical DNA cleavage in Escherichia coli pBR322 assessed as form 3 level at 15 uM in pH 7.0 phosphate buffer measured after 0.5 mins of UV irradiation; format: nucleic-acid assay
Nucleic Acid [21] = experiment: Induction of photochemical DNA cleavage in Escherichia coli pBR322 assessed as form 3 level at 15 uM in pH 7.0 phosphate buffer measured after 10 mins of UV irradiation; format: nucleic-acid assay
Nucleic Acid [22] = experiment: Induction of photochemical DNA cleavage in Escherichia coli pBR322 assessed as form 2 level at 15 uM in pH 6.0 phosphate buffer measured after 4 mins of UV irradiation; format: nucleic-acid assay
Nucleic Acid [23] = experiment: Induction of photochemical DNA cleavage in Escherichia coli pBR322 assessed as form 3 level at 15 uM in pH 6.0 phosphate buffer measured after 6 mins of UV irradiation; format: nucleic-acid assay
A-375 = experiment: Phototoxicity in human A375 cells incubated for 72 hrs exposed to UV light for 10 mins by MTT assay; format: functional; conditions: A-375, light or radiation study
Nucleic Acid [24] = experiment: Induction of photochemical DNA cleavage in Escherichia coli pBR322 assessed as form 2 level at 15 uM in pH 7.0 phosphate buffer measured after 8 mins of UV irradiation; format: nucleic-acid assay
Nucleic Acid [25] = experiment: Induction of photochemical DNA cleavage in Escherichia coli pBR322 assessed as form I level at 15 uM in pH 7.0 phosphate buffer measured after 0.5 mins of UV irradiation; format: nucleic-acid assay
Nucleic Acid [26] = experiment: Induction of photochemical DNA cleavage in Escherichia coli pBR322 assessed as disappearance of supercoiled DNA at 15 uM in pH 7.0 phosphate buffer after 10 mins of UV irradiation; format: nucleic-acid assay
Nucleic Acid [27] = experiment: Induction of photochemical DNA cleavage in Escherichia coli pBR322 assessed as form 2 level at 15 uM in pH 7.0 phosphate buffer measured after 2 mins of UV irradiation; format: nucleic-acid assay
Nucleic Acid [28] = experiment: Induction of photochemical DNA cleavage in Escherichia coli pBR322 assessed as form I level at 15 uM in pH 7.0 phosphate buffer measured after 2 mins of UV irradiation; format: nucleic-acid assay
Nucleic Acid [29] = experiment: Induction of photochemical DNA cleavage in Escherichia coli pBR322 assessed as form 2 level at 15 uM in pH 6.0 phosphate buffer measured after 0.5 mins of UV irradiation; format: nucleic-acid assay
Nucleic Acid [30] = experiment: Induction of photochemical DNA cleavage in Escherichia coli pBR322 assessed as form I level at 15 uM in pH 7.0 phosphate buffer measured after 6 mins of UV irradiation; format: nucleic-acid assay
Nucleic Acid [31] = experiment: Induction of photochemical DNA cleavage in Escherichia coli pBR322 assessed as form 2 level at 15 uM in pH 8.0 phosphate buffer measured after 0.5 mins of UV irradiation; format: nucleic-acid assay
Nucleic Acid [32] = experiment: Induction of photochemical DNA cleavage in Escherichia coli pBR322 assessed as form I level at 15 uM in pH 6.0 phosphate buffer measured after 0.5 mins of UV irradiation; format: nucleic-acid assay
Nucleic Acid [33] = experiment: Induction of photochemical DNA cleavage in Escherichia coli pBR322 assessed as disappearance of supercoiled DNA at 15 uM in pH 6.0 phosphate buffer after 10 mins of UV irradiation; format: nucleic-acid assay
Nucleic Acid [34] = experiment: Induction of photochemical DNA cleavage in Escherichia coli pBR322 assessed as form I level at 15 uM in pH 8.0 phosphate buffer measured after 0.5 mins of UV irradiation; format: nucleic-acid assay

Activity (Nucleic Acid [2]): 35.4%
Activity (Nucleic Acid [3]): 0%
Activity (Nucleic Acid [4]): 78.7%
Activity (Nucleic Acid [5]): 47.8%
Activity (Nucleic Acid [7]): 0%
Activity (Nucleic Acid [8]): 0%
Activity (Nucleic Acid [9]): 159%
Activity (Nucleic Acid [10]): 77.8%
Activity (Nucleic Acid [11]): 21.3%
Activity (Nucleic Acid [12]): 52.3%
Activity (Nucleic Acid [13]): 21.3%
Activity (Nucleic Acid [14]): 0%
Activity (Nucleic Acid [15]): 48.1%
Activity (Nucleic Acid [16]): 22.6%
Activity (Nucleic Acid [17]): 83.9%
Activity (Nucleic Acid [18]): 65%
Activity (Nucleic Acid [19]): 52.4%
Activity (Nucleic Acid [20]): 0%
Activity (Nucleic Acid [21]): 40.5%
Activity (Nucleic Acid [22]): 65.1%
Activity (Nucleic Acid [23]): 51.9%
Activity (Nucleic Acid [24]): 51%
Activity (Nucleic Acid [25]): 64.6%
Activity (Nucleic Acid [26]): Active
Activity (Nucleic Acid [27]): 41.5%
Activity (Nucleic Acid [28]): 45.8%
Activity (Nucleic Acid [29]): 60%
Activity (Nucleic Acid [30]): 24.7%
Activity (Nucleic Acid [31]): 13.6%
Activity (Nucleic Acid [32]): 26.5%
Activity (Nucleic Acid [33]): Active
Activity (Nucleic Acid [34]): 86.4%
Compound: NCCCC[C@H](N)C(=O)NCCCC[C@H](N)C(=O)Nc1ccc(C#Cc2c(F)c(F)nc(F)c2F)cc1.O=C(O)C(F)(F)F
Activity (Nucleic Acid [1]): Active
Activity (Nucleic Acid [6]): tde
CC50 (A-375): 0.27 µM
